Laboratory results: PMC3574212 (Journal of medicinal chemistry, 2013)

Molecular target: T1, EPAC2 (Mus musculus, UniProt Q9EQZ6)
T1 sequence (Q9EQZ6 1-1011): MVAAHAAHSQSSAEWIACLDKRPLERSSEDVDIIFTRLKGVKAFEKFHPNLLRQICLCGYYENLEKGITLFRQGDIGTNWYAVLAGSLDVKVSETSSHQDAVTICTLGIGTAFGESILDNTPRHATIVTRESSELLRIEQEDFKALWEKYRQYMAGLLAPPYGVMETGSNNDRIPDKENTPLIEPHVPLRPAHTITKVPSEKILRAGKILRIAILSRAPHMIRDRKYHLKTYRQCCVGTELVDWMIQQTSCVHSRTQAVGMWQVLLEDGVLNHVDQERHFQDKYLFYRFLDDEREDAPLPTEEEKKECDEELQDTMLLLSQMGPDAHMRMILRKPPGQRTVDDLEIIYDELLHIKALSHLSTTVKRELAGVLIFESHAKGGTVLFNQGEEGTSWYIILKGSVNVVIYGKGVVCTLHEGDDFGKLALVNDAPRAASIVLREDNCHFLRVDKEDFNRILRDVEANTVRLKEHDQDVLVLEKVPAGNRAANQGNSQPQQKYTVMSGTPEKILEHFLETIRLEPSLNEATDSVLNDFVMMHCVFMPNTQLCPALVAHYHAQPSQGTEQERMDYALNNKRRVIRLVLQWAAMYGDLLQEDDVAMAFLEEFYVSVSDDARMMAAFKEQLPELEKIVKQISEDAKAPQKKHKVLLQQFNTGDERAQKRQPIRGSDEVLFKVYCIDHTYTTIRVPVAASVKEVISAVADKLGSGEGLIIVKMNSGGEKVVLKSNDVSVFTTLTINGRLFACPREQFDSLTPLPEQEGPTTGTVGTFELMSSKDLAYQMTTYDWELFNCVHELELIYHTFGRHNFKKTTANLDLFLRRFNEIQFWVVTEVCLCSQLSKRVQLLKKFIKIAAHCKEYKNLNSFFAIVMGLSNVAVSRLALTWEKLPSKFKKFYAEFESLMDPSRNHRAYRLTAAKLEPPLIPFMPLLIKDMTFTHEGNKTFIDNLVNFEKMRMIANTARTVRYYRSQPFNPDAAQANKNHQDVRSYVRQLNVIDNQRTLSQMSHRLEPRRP
Experiment: 8-NBD-cAMP competition binding assay
Conditions: for Relative Potency (RA): RA = IC50, cAMP/ IC50, compound; for EPAC2 inhibitory activity (in words): 8-NBD-cAMP competition

SMILES | Relative Potency (RA) | IC50 [µM] | EPAC2 inhibitory activity (in words)
Cc1cc(C)c(Nc2cc(Cl)cc(Cl)c2)c(C)c1 [Compound 14b, (3,5-Dichlorophenyl)-(2,4,6-trimethylphenyl)amine] | 44.4 | – | –
Cc1cc(C)c(S(=O)(=O)c2ccc(OCCN)cc2)c(C)c1 [Compound 11d, 2-[4-(2,4,6-Trimethylbenzenesulfonyl)phenoxy]ethylamine] | <0.13 | > 300 | –
Cc1cc(C)c(S(=O)(=O)c2cc(C)c(C)cc2C)c(C)c1 [Compound 5a, 1,3,5-Trimethyl-2-(2,4,5-trimethylbenzenesulfonyl)benzene] | 57.1 | – | –
Cc1cc(C)c(S(=O)(=O)c2ccc(OC3CCNCC3)cc2)c(C)c1 [Compound 11c, 4-[4-(2,4,6-Trimethylbenzenesulfonyl)phenoxy]piperidine] | <0.13 | > 300 | –
Cc1cc(C)c(Nc2nc(C)c(C)s2)c(C)c1 [Compound 17, (4,5-Dimethylthiazol-2-yl)-(2,4,6-trimethylphenyl)amine] | <0.13 | > 300 | no activity
CCc1cccn1S(=O)(=O)c1ccc(C(F)(F)F)cc1 [Compound 20e, 2-Ethyl-1-(4-trifluoromethyl-benzenesulfonyl)-1H-pyrrole] | <0.13 | > 300 | dramatic loss of EPAC inhibitory activity
Cc1ccc(Nc2c(C)cc(C)cc2C)cc1 [Compound 14a, p-Tolyl-(2,4,6-trimethylphenyl)amine] | 10.5 | – | –
CCc1cccn1S(=O)(=O)c1ccc(OC)cc1 [Compound 20c, 2-Ethyl-1-(4-methoxybenzenesulfonyl)-1H-pyrrole] | 5 | – | –
Cc1cc(C)c(S(=O)(=O)c2ccc(OC3CCCCC3)cc2)c(C)c1 [Compound 11a, 2-(4-Cyclohexyloxybenzenesulfonyl)-1,3,5-trimethylbenzene] | <0.13 | > 300 | –
Cc1cc(C)c(S(=O)(=O)c2ccc(C3CCCCC3)cc2)c(C)c1 [Compound 5c, 2-(4-Cyclohexylbenzenesulfonyl)-1,3,5-trimethylbenzene] | <0.13 | > 300 | –
CCc1cccn1S(=O)(=O)c1cc(C)cc(C)c1 [Compound 20g, 1-(3,5-Dimethylbenzenesulfonyl)-2-ethyl-1H-pyrrole] | 8.5 | – | –

More lines, now with the values ahead:

Relative Potency (RA) | IC50 [µM] | EPAC2 inhibitory activity (in words) | SMILES
10 | – | – | Cc1cc(C)c(S(=O)(=O)c2ccc(I)cc2)c(C)c1 [Compound 8a, 2-(4-Iodobenzenesulfonyl)-1,3,5-trimethylbenzene]
33.3 | – | almost retained activity | Cc1cc(C)c(S(=O)(=O)n2ccc3ccccc32)c(C)c1 [Compound 22a, 1-(2,4,6-Trimethylbenzenesulfonyl)-1H-indole]
4.5 | – | – | Cc1cc(C)c(S(=O)(=O)n2ccc3cnccc32)c(C)c1 [Compound 24b, 1-(2,4,6-Trimethylbenzenesulfonyl)-1H-pyrrolo[3,2-c]pyridine]
3.0 | – | – | Cc1cc(C)c(S(=O)(=O)c2ccc(O)cc2)c(C)c1 [Compound 10, 4-(2,4,6-Trimethylbenzenesulfonyl)phenol]
21.1 | – | – | COc1ccc(S(=O)(=O)c2c(C)cc(C)cc2C)cc1 [Compound 8b, 2-(4-Methoxybenzenesulfonyl)-1,3,5-trimethylbenzene]
10.5 | – | – | Cc1cc(C)c(S(=O)(=O)n2ccc3ncccc32)c(C)c1 [Compound 24a, 1-(2,4,6-Trimethylbenzenesulfonyl)-1H-pyrrolo[3,2-b]pyridine]
<0.13 | > 300 | dramatic loss of activity | COC(=O)c1ccc2c(ccn2S(=O)(=O)c2c(C)cc(C)cc2C)c1 [Compound 22b, 1-(2,4,6-Trimethylbenzenesulfonyl)-1H-indole-5-carboxylic acid methyl ester]
